Here are results for one compound from patent US20090227816A1, “Process for preparing polybrominated compounds” (BROMINE COMPOUNDS LTD., priority 2006, published 2009).

This series is classed as physicochemical. The procedure:
The solubility of Deca in bromine was determined as 2.64 g Deca in 100 g bromine at 20° C.

For `Brc1c(Br)c(Br)c(Oc2c(Br)c(Br)c(Br)c(Br)c2Br)c(Br)c1Br` [Deca, decabromodiphenyl ether], the “solubility of Deca in bromine” value turned out to be 2.64 g Deca in 100 g bromine.
